One series relates to P-gp (MDR1). Put plainly: MDCK-MDR1 assay (permeability, efflux ratio). Format: in vitro ADME. The following applies: dog. The method, then:
The permeability of the test compounds was assessed in MDCK-MDR1 cells that were cultured to confluency (4-6 days) in a 96 transwell plate. Test compounds were diluted with the transport buffer (HBSS+1% BSA) to a concentration of 0.5 μM and applied to the apical or basolateral side of the cell monolayer. Permeation of the test compounds from A to B direction or B to A direction was determined in triplicate over a 60-minute incubation time at 37° C. and 5% CO2 with a relative humidity of 95%. Test compounds were quantified by LC-MS/MS analysis based on the peaks area ratios of analyte/IS in both the receiver and donor wells of the transwell plate.
The apparent permeability coefficient Papp (cm/s) was calculated using the equation: Papp=(dCr/dt)×Vr/(A×C0)
Where dCr/dt is the cumulative concentration of compound in the receiver chamber as a function of time (μM/s); Vr is the solution volume in the receiver chamber (0.05 mL on the apical side; 0.25 mL on the basolateral side); A is the surface area for the transport, i.e. 0.0804 cm^2 for the area of the monolayer; C0 is the initial concentration in the donor chamber (μM).

The target of series [1] is T1, human BACE1 (Homo sapiens, UniProt P56817). Put plainly: BACE1 binding assay (SPA-based, radioligand displacement). Details: biotin (biotinylated form); made in house; host or cells: Freestyle HEK293 cells. As to conditions: pH 4.5, 10 nM radioligand, 6 nM human BACE1, read-out: BACE1 binding affinity. How it is done: The binding assay was performed as SPA-based assay using a biotinylated form of human BACE1 recombinantly expressed and subsequently purified from Freestyle HEK293 cells. The binding assay was run in a 50 mM sodium acetate buffer, pH 4.5 containing 50 mM NaCl and 0.03% Tween-20 in white clear bottom 384 plates (Corning #3653). 10 nM (final concentration) radioligand ([^3H]-N-((1S,2R)-1-benzyl-3-cyclopropylamino-2-hydroxy-propyl)-5-(methanesulfonyl-methyl-amino)-N-((R)-1-phenyl-ethyl)-isophthalamide) (TRQ11569 purchased from GE Healthcare) was mixed with test compound at a given concentration, 6 nM (final concentration) human BACE1 and 25 μg Streptavidin coated PVT core SPA beads (RPNQ0007, GE Healthcare Life Sciences) in a total volume of 40 μl. Several concentrations of each test compound were tested in the assay for IC50 determination. The plates were incubated for one hour at room temperature and counted in a WaIlac Trilux counter. […] For each test compound, a IC50 value (the concentration mediating 50% inhibition of the specific binding of the radioligand) was determined from concentration-response curve and used to calculate the Ki from the equation Ki=IC50/(1+L/Kd), where L and Kd are the final concentration of the radioligand used in the assay and the dissociation constant of the radioligand, respectively. The Kd of the radioligand was determined from saturation binding experiments.
T1 sequence (P56817 46-501): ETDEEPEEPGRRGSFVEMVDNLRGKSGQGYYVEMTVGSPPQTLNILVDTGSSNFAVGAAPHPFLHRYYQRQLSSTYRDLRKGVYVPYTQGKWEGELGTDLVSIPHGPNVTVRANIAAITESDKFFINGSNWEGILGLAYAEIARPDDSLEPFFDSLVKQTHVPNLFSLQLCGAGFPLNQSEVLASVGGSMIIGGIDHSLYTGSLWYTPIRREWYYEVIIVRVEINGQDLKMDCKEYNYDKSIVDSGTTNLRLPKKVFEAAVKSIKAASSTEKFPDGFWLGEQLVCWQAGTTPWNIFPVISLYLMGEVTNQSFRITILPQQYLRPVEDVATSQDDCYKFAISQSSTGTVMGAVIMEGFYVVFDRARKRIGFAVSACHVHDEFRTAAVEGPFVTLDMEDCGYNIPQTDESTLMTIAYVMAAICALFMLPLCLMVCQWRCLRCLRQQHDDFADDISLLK
Background: Loss of bound radioactivity is the signal in a displacement assay; it reports binding, not function.

Series [2] addresses T1, human BACE1. Put plainly: BACE1 efficacy assay (FRET-based, commercial BACE1 kit). In kind it is biochemical. Details: purchased Life Technologies P2985. As to conditions: test compound at 10 μM. The method, then:
The efficacy assay was performed as a FRET-based assay using a commercially available BACE1 kit (Life Technologies, P2985). 2 μl test compound at 10 μM (final concentration) and 15 μl BACE1 enzyme from the kit (final concentration 3 nM) were preincubated for 15 minutes at room temperature before addition of 15 μl of substrate from the kit (250 nM final concentration) and incubated for additional 90 minutes at room temperature. The assay plate was subsequently read in a Pherastar (Ex540/Em590).

Each structure is given as a SMILES string.

The term efflux ratio denotes the permeability from basolateral to apical divided by that in the opposite direction, in the common usage. The inhibition is the drop in the measured response relative to a control, in per cent.

In the case of `COc1cnc(C(=O)Nc2ccc(F)c([C@]3(CF)CC[C@](F)(CF)C(N)=N3)c2)cn1` [Compound 26, N-[3-[(2S,5R)-6-amino-5-fluoro-2,5-bis(fluoromethyl)-2,3,4,5-tetrahydropyridin-2-yl]-4-fluoro-phenyl]-5-methoxy-pyrazine-2-carboxamide], the efflux ratio at 60 min, 0.5 µM in the series with P-gp (MDR1) worked out at 0.92. Further, on human BACE1 [1], the Ki worked out at 160 nM.
On to `NC1=N[C@](CF)(c2cc(NC(=O)c3ccc(F)cn3)ccc2F)CC[C@]1(F)CF` [Compound 24, N-[3-[(2S,5R)-6-amino-5-fluoro-2,5-bis(fluoromethyl)-2,3,4,5-tetrahydropyridin-2-yl]-4-fluoro-phenyl]-5-fluoro-pyridine-2-carboxamide], for which the efflux ratio at 60 min, 0.5 µM in the series with P-gp (MDR1) stood at 0.88. Moreover, the Ki on human BACE1 [1] came out at 180 nM.
Turning to `COc1ccc(C(=O)Nc2cc(F)c(F)c([C@]3(C)CC[C@@](F)(CF)C(N)=N3)c2)nc1` [Compound 16, N-[3-[(2S,5S)-6-Amino-5-fluoro-5-(fluoromethyl)-2-methyl-2,3,4,5-tetrahydropyridin-2-yl]-4,5-difluoro-phenyl]-5-methoxy-pyridine-2-carboxamide], the inhibition at 10 µM at human BACE1 [2] came to 104%.
With `COc1ccc(C(=O)Nc2cc(F)c(F)c([C@]3(C)CC[C@](F)(CF)C(N)=N3)c2)nc1` [Compound 19, N-[3-[(2S,5R)-6-Amino-5-fluoro-5-(fluoromethyl)-2-methyl-2,3,4,5-tetrahydropyridin-2-yl]-4,5-difluoro-phenyl]-5-methoxy-pyridine-2-carboxamide], on human BACE1 [2], the inhibition at 10 µM was 104%.
For `Cc1csc(C(=O)Nc2ccc(F)c([C@]3(C)CC[C@@](F)(CF)C(N)=N3)c2)n1` [Compound 8, N-(3-((2S,5S)-6-Amino-5-fluoro-5-(fluoromethyl)-2-methyl-2,3,4,5-tetrahydropyridin-2-yl)-4-fluorophenyl)-4-methylthiazole-2-carboxamide], in the series with P-gp (MDR1), the efflux ratio at 60 min, 0.5 µM worked out at 2.36. Also, the Ki on human BACE1 [1] worked out at 62 nM.
For `C[C@@]1(c2cc(NC(=O)c3ccc(Cl)cc3)ccc2F)CC[C@@](F)(CF)C(N)=N1` [Compound 12, N-(3-((2S,5S)-6-Amino-5-fluoro-5-(fluoromethyl)-2-methyl-2,3,4,5-tetrahydropyridin-2-yl)-4-fluorophenyl)-4-chlorobenzamide], the inhibition at 10 µM against human BACE1 [2] came out at 103%. Also, the Ki at human BACE1 [1] is 140 nM.
Consider `C[C@@]1(c2cc(NC(=O)c3ccc(F)cn3)cc(F)c2F)CC[C@](F)(CF)C(N)=N1` [Compound 18, N-[3-[(2S,5R)-6-Amino-5-fluoro-5-(fluoromethyl)-2-methyl-2,3,4,5-tetrahydropyridin-2-yl]-4,5-difluoro-phenyl]-5-fluoro-pyridine-2-carboxamide], for which, at human BACE1 [2], the inhibition at 10 µM was determined as 103%. The Ki at human BACE1 [1] amounted to 300 nM.
Turning to `Cn1cc(Br)nc1C(=O)Nc1ccc(F)c([C@]2(C)CC[C@@](F)(CF)C(N)=N2)c1` [Compound 7, N-(3-((2S,5S)-6-Amino-5-fluoro-5-(fluoromethyl)-2-methyl-2,3,4,5-tetrahydropyridin-2-yl)-4-fluorophenyl)-4-bromo-1-methyl-1H-imidazole-2-carboxamide], the inhibition at 10 µM on human BACE1 [2] came to 104%. The Ki at human BACE1 [1] came to 67 nM.
Turning to `NC1=N[C@](CF)(c2cc(NC(=O)c3ccc(F)cn3)ccc2F)CC[C@@]1(F)CF` [Compound 21, N-[3-[(2S,5S)-6-amino-5-fluoro-2,5-bis(fluoromethyl)-2,3,4,5-tetrahydropyridin-2-yl]-4-fluoro-phenyl]-5-fluoro-pyridine-2-carboxamide], in the series with P-gp (MDR1), the efflux ratio at 60 min, 0.5 µM was 0.97. Also, on human BACE1 [1], the Ki is 67 nM.
Regarding `COc1cnc(C(=O)Nc2ccc(F)c([C@]3(CF)CC[C@@](F)(CF)C(N)=N3)c2)cn1` [Compound 23, N-[3-[(2S,5S)-6-amino-5-fluoro-2,5-bis(fluoromethyl)-2,3,4,5-tetrahydropyridin-2-yl]-4-fluoro-phenyl]-5-methoxy-pyrazine-2-carboxamide], in the series with P-gp (MDR1), the efflux ratio at 60 min, 0.5 µM was 1.06. Further, the Ki at human BACE1 [1] was determined as 17 nM.

The record behind these values is patent US10011596B2, “2-amino-3-fluoro-3-(fluoromethyl)-6-methyl-6-phenyl-3,4,5,6-tetrahydropyridines as BACE1 inhibitors” (H. Lundbeck A/S, priority 2015, dated 2018).
